# Patent US20180271960A1, “METHOD TO TREAT CANCER USING ARGININE DELPETOR AND ORNITHINE DECARBOXYLASE (ODC) INHIBITOR” (Bio-Cancer Treatment International Ltd., priority 2015, published 2018)
# Columns and labels:
# [1] = test system: H1975 lung adenocarcinoma cell line; experiment: MTT assay, growth inhibition of H1975 cell line; format: cell-based; details: 48 h and 72 h at 0.5 ng/μl and 10 ng/μl
# Procedure: (§1) The inhibition ratio (IR) and the half maximal inhibitory concentration (IC50) values are determined by a MTT assay.
# [2] = test system: HCC2935 lung adenocarcinoma cell line; experiment: MTT assay, growth inhibition of HCC2935 cell line; format: cell-based; details: 72 h at 10 ng/μl only
# Procedure: as §1
substance,measurement,setting,value
"arginine deiminase [ADI, reference compound]",growth inhibition effect (cell proliferation),[1],does not inhibit H1975 lung adenocarcinoma cell line proliferation
same,growth inhibition effect (cell proliferation / toxicity),[2],does not inhibit HCC2935 lung adenocarcinoma cell line proliferation
